Data taken from patent US20190314312A1, “COMBINATION THERAPY TO INCREASE ENDOGENOUS NITRIC OXIDE (NO) SYNTHESIS” (Yeda Research and Development Co. Ltd., priority 2016, published 2019).
Entries after “also recorded” stand apart in the source; their conditions may differ.

How the values were obtained:
Type in all cases: in vivo, mouse
Ass1 = experiment: Immunohistochemistry staining of distal colon sections for Ass1; conditions: after colitis induction, fisetin treatment, FIG. 4A
C57BL/6J.OlaaHsd mice = experiment: DSS-induced colitis, treatment with arginine, citrulline, NaNO2, fisetin or citrulline plus fisetin
Method: Colitis was induced in Vav1^Cre:As1^f/f mice and CD11c^Cre:As1^f/f with 1.5% DSS and with 0.8% DSS in the Villin^Cre:As1^f/f (wt/vol), (Dextran Sodium Sulfate, MP Biomedicals; molecular weight 36,000-50,000 Da). The powder was dissolved in the drinking water for 6 days, followed by 5 days of supplementing regular water^20. Each group consisted of eight to ten, 8-10 weeks old, male mice. Experiments were repeated at least three times. “f/f”—flox/flox.
Colonoscopy was performed on days 7 and 11 of the experiment to monitor for severity of colitis. For the procedure, a high resolution mouse video endoscopic system was used, which consists of a miniature endoscope (scope 1.9 mm outer diameter), a xenon light source, a triple chip camera, and an air pump to achieve regulated inflation of the mouse bowel (Karl Storz, Tuttlingen, Germany). Mice were anesthetized by the administration of 4-5% of isoflurane in 100% oxygen at a rate of 0.2-0.5 L/min or by the administration of 100 mg/kg Ketamine/10 mg/kg Xylazine mixture IP, after which, the endoscope was introduced via the anus and the colon was carefully insufflated with an air pump before analysis of the colonic mucosa. The endoscopic procedure was viewed on a color monitor and digitally recorded on tape. Colitis was scored according to the Murine endoscopic index of colitis severity (MEICS), considering differences in the thickness of the bowel wall, changes in blood vessel integrity, mucosal surface, stool consistency or the presence of fibrin, scored each between 0 and 3. The cumulative score ranged from 0 (no signs of inflammation) to 15 (signs of severe inflammation)^21.
Mice were treated with 1% (wt/vol) DSS for 6 days, followed by administration of either arginine 1% (wt/vol) solution (Sigma-Aldrich, St. Louis, Mo., catalogue number A8094) in drinking water, citrulline 1% (wt/vol) (L-citrulline, Chem-Impex International), NaNO2 100 mg (Sigma-Aldrich, St. Louis, Mo., catalogue number S2252), or water as control for additional 6 days.
Fisetin was given by intraperitoneal (i.p.) injection (1 mg/animal) in 30 μL of DMSO twice weekly. The control group was injected with 30 μL of DMSO twice weekly. Each group consisted of ten, 8-weeks old, male mice. Experiments were repeated three times.
Histopathology. On the day of sacrifice, colons were removed and their length was measured. Colon was fixed in 2.5% PFA solution overnight at 4° C., then embedded in paraffin, sectioned and stained with H&E. Tissues were examined in a blinded manner by a pathologist and scored on a 0-4 scale based on the parameters of inflammation severity^20.

[1] = system: CD64+, CD11c+ macrophages; experiment: FACS analysis of colon CD64+, CD11c+ macrophages after colitis induction; conditions: fisetin vs control, FIGS. 14D-F
Method: Colon segment was flushed with cold PBS, longitudinally cut open and rinsed to remove residual luminal contents. Tissue was cut into 3- to 5-mm pieces and incubated in HBSS medium containing EDTA 0.5 M and Hepes 10 mM at 37° C. for 20 minutes, shaken at 180 rpm, to separate epithelial fraction. Supernatant was centrifuged at 4° C. at 500 g for 10 minutes. Recovered tissue was digested in HBSS medium with 2% fetal bovine serum (FBS), 0.05% collagenase II and 0.05% DNase I (Sigma) for 40 minutes. at 37° C., shaken at 180 rpm. LP cells were filtered through 65 μm mesh and centrifuged at 4° C. at 500 g for 10 minutes. The present inventors prepared single cell suspensions from mouse colon by enzymatic digestion and analyzed by polychromatic flow cytometry. Samples were stained with conjugated antibodies or matching isotype controls according to manufacturer's instructions. Data were acquired on an LSRII (BD Biosciences) or FACSCalibur instrument (Becton-Dickinson) with CellQuest software, with a MacsQuant instrument (Miltenyi, Bergisch Gladbach, Germany), and analyzed using BD FACSDiva 6 or FlowJo software (version 7.6.5, or version vX.0.7 Tree Star Inc) or MacsQuant. Colon cells were stained for 30 min at 4° C. in flow cytometry buffer (PBS, 10% FCS and 0.02% azide). For antigens that require intracellular staining (As1, iNOS and S-nitrosocystein), cell surface staining was followed by cell fixation and permeabilization with the Cytofix/Cytoperm kit (BD Biosciences) according to the manufacturer's instructions. […] After staining for cell surface antigens, intracellular NO was detected by incubation of cells for 15 min at 37° C. with 10 μM DAF-FM diacetate followed by extensive washing, according to the manufacturer's instructions (Molecular Probes). […] As1 was detected using anti-As1-ALEXA FLUOR® 488 (BD Biosciences), iNOS using anti-iNOS followed by anti-rat 488 (Jackson ImmunoResearch), and nitrosylation using anti-S-nitrosocystein (from abcam) followed by anti-mouse 488 (Jackson ImmunoResearch).

enterocytes = experiment: FACS analysis of colon epithelial cells (enterocytes) after colitis induction
Method: Colon segment was flushed with cold PBS, longitudinally cut open and rinsed to remove residual luminal contents. Tissue was cut into 3- to 5-mm pieces and incubated in HBSS medium containing EDTA 0.5 M and Hepes 10 mM at 37° C. for 20 minutes, shaken at 180 rpm, to separate epithelial fraction. Supernatant was centrifuged at 4° C. at 500 g for 10 minutes. Recovered tissue was digested in HBSS medium with 2% fetal bovine serum (FBS), 0.05% collagenase II and 0.05% DNase I (Sigma) for 40 minutes. at 37° C., shaken at 180 rpm. LP cells were filtered through 65 μm mesh and centrifuged at 4° C. at 500 g for 10 minutes. The present inventors prepared single cell suspensions from mouse colon by enzymatic digestion and analyzed by polychromatic flow cytometry. Samples were stained with conjugated antibodies or matching isotype controls according to manufacturer's instructions. Data were acquired on an LSRII (BD Biosciences) or FACSCalibur instrument (Becton-Dickinson) with CellQuest software, with a MacsQuant instrument (Miltenyi, Bergisch Gladbach, Germany), and analyzed using BD FACSDiva 6 or FlowJo software (version 7.6.5, or version vX.0.7 Tree Star Inc) or MacsQuant. Colon cells were stained for 30 min at 4° C. in flow cytometry buffer (PBS, 10% FCS and 0.02% azide). For antigens that require intracellular staining (As1, iNOS and S-nitrosocystein), cell surface staining was followed by cell fixation and permeabilization with the Cytofix/Cytoperm kit (BD Biosciences) according to the manufacturer's instructions. For staining, the present inventors used a lineage cocktail of antibodies anti-CD45-APC, Anti-CD64-PE, Anti-CD11c-PB, Anti-326-APC cy7, Anti CD31-PE cy7 (all from BioLegend). After staining for cell surface antigens, intracellular NO was detected by incubation of cells for 15 min at 37° C. with 10 μM DAF-FM diacetate followed by extensive washing, according to the manufacturer's instructions (Molecular Probes). Staining without addition of the DAF-FM probe was considered to be the baseline for gating the positive population. As1 was detected using anti-As1-ALEXA FLUOR® 488 (BD Biosciences), iNOS using anti-iNOS followed by anti-rat 488 (Jackson ImmunoResearch), and nitrosylation using anti-S-nitrosocystein (from abcam) followed by anti-mouse 488 (Jackson ImmunoResearch).

control mice = experiment: DSS colitis (0.8% DSS) in control mice, fisetin or NaNO2; conditions: control (WT) mice, 0.8% DSS 5 days, fisetin 1 mg IP twice, FIGS. 4L-N
Method: (§1) Colitis was induced on C57BL/6J.OlaaHsd mice. Mice were treated with 1% DSS for 6 days, followed by administration of either fiselin (1 mg in 30 μl DMSO IP, twice, in 3 days interval) citrulline 1% (wt/vol) solution in drinking water, the combination of both treatments or only DMSO as a control (30 μl DMSO IP, twice, in 3 days interval). […] FIGS. 4L-N—Colitis was induced on enterocytes CKO mice and compared to controls. Mice were treated with 0.8% DSS for 5 days, followed by administration with either NO donors; NaNO2 (100 mg/kg) or fisetin (1 mg in 30 μl DMSO IP, twice, in 3 days interval). […] Note that colitis severity is reduced by activating As1 in enterocytes, by citrulline and fisetin supplementation.
(§2) Colitis was induced in Vav1^Cre:As1^f/f mice and CD11c^Cre:As1^f/f with 1.5% DSS and with 0.8% DSS in the Villin^Cre:As1^f/f (wt/vol), (Dextran Sodium Sulfate, MP Biomedicals; molecular weight 36,000-50,000 Da). […]
(§3) Colonoscopy was performed on days 7 and 11 of the experiment to monitor for severity of colitis. […] The endoscopic procedure was viewed on a color monitor and digitally recorded on tape. Colitis was scored according to the Murine endoscopic index of colitis severity (MEICS), considering differences in the thickness of the bowel wall, changes in blood vessel integrity, mucosal surface, stool consistency or the presence of fibrin, scored each between 0 and 3. […]

enterocytes CKO mice = experiment: DSS colitis (0.8% DSS) in enterocytes CKO mice, fisetin or NaNO2; conditions: 0.8% DSS 5 days, fisetin 1 mg IP twice, FIGS. 4L-N
Method: as §1, §2, §3

O=c1c(O)c(-c2ccc(O)c(O)c2)oc2cc(O)ccc12 [fisetin, 3,7, 3′, 4′-tetrahydroxyflavone]
Ass1 expression in distal colon sections (enterocytes) (Ass1): up regulation | Ass1 expression in distal colon sections (enterocytes) (Ass1; listed as fesitin): upregulated | weight loss (C57BL/6J.OlaaHsd mice; 1% DSS 6 days, then fisetin 1 mg IP twice, citrulline 1% in drinking water or both vs DMSO control, FIG. 4B): significant weight loss is documented in the control group compared to the treated mice | colitis severity in all parameters (C57BL/6J.OlaaHsd mice; fisetin vs control, FIG. 4A-E): improved colitis severity in all parameters | colon length (C57BL/6J.OlaaHsd mice; fisetin, citrulline or both vs DMSO control, FIG. 4D): significant longer | histological score (C57BL/6J.OlaaHsd mice; fisetin, citrulline or both vs DMSO control, FIG. 4E): significant reduction | As1 levels [1]: decrease | NO levels [1]: decrease | iNOS levels [1]: decrease | NO levels in enterocytes (colon epithelial cells) (enterocytes; after colitis induction, treated vs control, FIGS. 3F-J, 4F-I): increased; also recorded: significant increase | iNOS expression in enterocytes (colon cells) (enterocytes; fisetin vs control after colitis induction, FIGS. 4J-K): increased; also recorded: significant increase | ASL levels in enterocytes (enterocytes; fisetin, FIGS. 4H-L): increase | effect of treatment on colitis (survival, body weight gain, colitis score) (control mice): improved colitis severity | effect of treatment on colitis (survival, body weight gain, colitis score) (control mice; listed as Fisetin): effective in the control group | effect of treatment on colitis (survival, body weight gain, colitis score) (enterocytes CKO mice): did not have an effect | effect of treatment on colitis (survival, body weight gain, colitis score) (enterocytes CKO mice; listed as Fisetin): not in the enterocytes CKO mice
